# Read-outs that look alike come from different tables or passages of the source.
# Legend:
# WDR5 = WDR5 (Homo sapiens, UniProt P61964); test: WDR5 HTRF binding assay; conditions: read-out: (a) WDR5 HTRF Pep Val v.1[Inhibitor/IC50]Qualified AC50
# Procedure, shortened: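 6 nM WDR5 and 20 nM biotin-MLL1 WIN peptide (3762-3773) were incubated with compound (12-point, 3-fold dilutions) in pH 7.5 Hepes/NaCl/DTT buffer for 20 min at rt. Streptavidin-APC plus anti-His-Eu were then added for 1 hr, with HTRF read at 665/615. IC50 was fit from control-normalized activity; the counter assay used 15 nM biotin-PEG-His peptide.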
# MV4-11 cells = test: MV4-11 6-day cell growth CTG (CellTiter-Glo) assay; format: cell-based; conditions: 6 days, read-out: (c) MLL/WDR5 cell proliferation assay//MLL/WDR5 proliferation MV4:11 Qualified AC50
# Procedure, shortened: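 Exponentially growing MV4-11 AML cells (RPMI 1640, 10% FBS) seeded at 300 cells/well with 12-point 1:3 compound dilutions, top final concentration 50 μM. Viability read by CellTiter-Glo luminescence after 6 days at 37° C; % inhibition vs DMSO-only wells fitted to dose-response for IC50.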
# [1] = molecular target: wild type MLL1 four-member complex (MLL1-4C) (Homo sapiens, UniProt P61964); test: MLL1 LC-MS assay (SAH production); format: biochemical; conditions: read-out: (b) MLL LCMS Peptide Val.v.1 Qualified AC50
# Procedure, shortened: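 MLL1-4C (30 nM final) was preincubated 20 min with compound (3-fold dilutions, 8 or 12 points) and SAM in Tris-HCl pH 8.0 buffer. H3K4me0 peptide (histone H3[1-21]-biotin) was then added, giving final 2.5 μM SAM and 10 μM substrate, and reactions ran 120 min at rt. After TFA/d4-SAH quench, SAH was quantified by LC-MS/MS and IC50 fitted from control-normalised activity.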
IC50 (WDR5) [nM],AC50 [1] [nM],Structure (SMILES),"AC50 (MV4-11 cells; Homo sapiens, MV4-11, 144 h) [nM]",AC50 (MV4-11 cells) [nM]
< 10,10 to 1000,"CCOc1cc([C@H](C)N2CCc3c(cc(CCN(C)CC)cc3-c3cc(C)cnc3Cl)C2=O)ncc1C#N [Example 118, (S)-6-(1-(5-(2-chloro-5-methylpyridin-3-yl)-7-(2-(ethyl(methyl)amino)ethyl)-1-oxo-3,4-dihydroisoquinolin-2(1H)-yl)ethyl)-4-ethoxynicotinonitrile]",10 to 1000,
10 to 1000,10 to 1000,CCOc1cc([C@@H](C)N2CCc3c(cc(CCN4C[C@@H](O)[C@H]4C)cc3-c3cc(C)ncc3C)C2=O)ncc1C#N [Example 223],10 to 1000,
10 to 1000,10 to 1000,CCOc1cc([C@H](C)N2CCc3c(cc(CCN(C)CCO)cc3-c3ccc(F)nc3C)C2=O)ncc1C#N [Example 252],10 to 1000,
10 to 1000,10 to 1000,"CNc1nccn1Cc1ccc2c(c1)C(=O)N([C@@H](C)c1cnc(F)c(OC)c1)CC2 (single isomer, unassigned) [Example 94]",10 to 1000,
< 10,10 to 1000,CCOc1cc([C@H](C)N2CCc3c(cc(Cn4ccnc4C)cc3-c3cn(C)c(=O)cc3C(F)(F)F)C2=O)ncc1C#N [Example 288],< 10,
10 to 1000,10 to 1000,CCOc1cc([C@H](C)N2CCc3c(cc(CCN(C)CC(C)O)cc3-c3cc(C)cnc3C)C2=O)ncc1C#N (stereo partly drawn) [Example 246],10 to 1000,
10 to 1000,10 to 1000,CCOc1cc([C@H](C)N2CCc3c(cc(CCN(C)CCF)cc3-c3cc(C)ncc3C)C2=O)ncc1C#N [Example 254],10 to 1000,
< 10,10 to 1000,"CCOc1cc(CN2CCc3c(cc(CCN(C)CC)cc3-c3cc(C)ncc3C)C2=O)ncc1C#N [Example 179, 6-((5-(2,5-dimethylpyridin-4-yl)-7-(2-(ethyl(methyl)amino)ethyl)-1-oxo-3,4-dihydroisoquinolin-2(1H)-yl)rnethyl)-4-ethoxynicotinonitrile]",10 to 1000,
10 to 1000,10 to 1000,"CCOc1cc([C@@H](C)N2CCc3c(cc(CCN(C)CC)cc3-c3ccc(N)nc3C(F)(F)F)C2=O)ncc1C#N [Example 199, (R)-6-(1-(5-(6-amino-2-(trifluoromethyl)pyridin-3-yl)-7-(2-(ethyl(methyl)amino)ethyl)-1-oxo-3,4-dihydroisoquinolin-2(1H)-yl)ethyl)-4-ethoxynicotinonitrile]",10 to 1000,
< 10,10 to 1000,"CCOc1cc([C@H](C)N2CCc3c(cc(CCN(C)CC)cc3-c3cc4ocnc4nc3C)C2=O)ncc1C#N [Example 181, (S)-4-ethoxy-6-(1-(7-(2-(ethyl(methyl)amino)ethyl)-5-(5-methyloxazolo[4,5-b]pyridin-6-yl)-1-oxo-3,4-dihydroisoquinolin-2(1H)-yl)ethyl)nicotinonitrile]",10 to 1000,
< 10,10 to 1000,CCOc1cc([C@H](C)N2CCc3c(cc(Cn4cc(C)nc4C)cc3-c3cn(C)c(=O)cc3C)C2=O)ncc1C#N [Example 274],10 to 1000,
< 10,10 to 1000,"CNc1nccn1Cc1cc(CN2CC(O)C2)c2c(c1)C(=O)N([C@@H](C)c1cc(OC)c(F)cn1)CC2 (single isomer, unassigned) [Example 51]",10 to 1000,
< 10,10 to 1000,"CCOc1cc([C@H](C)N2CCc3c(cc(CCN(C)CC)cc3-c3cc(N)cnc3C(F)(F)F)C2=O)ncc1C#N [Example 138, (S)-6-(1-(5-(5-amino-2-(trifluoromethyl)pyridin-3-yl)-7-(2-(ethyl(methyl)amino)ethyl)-1-oxo-3,4-dihydroisoquinolin-2(1H)-yl)ethyl)-4-ethoxynicotinonitrile]",10 to 1000,
< 10,10 to 1000,CCOc1cc([C@H](C)N2CCc3c(cc(CCN4C[C@@H](O)[C@H]4C)cc3-c3cn(C)c(=O)cc3Cl)C2=O)ncc1C#N [Example 215],10 to 1000,
< 10,10 to 1000,"CCOc1cc(CN2CCc3c(cc(CCN(C)CC)cc3-c3cc(N)ncc3C)C2=O)ncc1C#N [Example 180, 6-((5-(2-amino-5-methylpyridin-4-yl)-7-(2-(ethyl(methyl)amino)ethyl)-1-oxo-3,4-dihydroisoquinolin-2(1H)-yl)rnethyl)-4-ethoxynicotinonitrile]",10 to 1000,
< 10,10 to 1000,"CCOc1cc([C@H](C)N2CCc3c(cc(Cn4ccnc4C)cc3-n3nc(C)nc3C)C2=O)ncc1C#N (single isomer, unassigned) [Example 265]",10 to 1000,
1000 to 25000,1000 to 25000,"CCOc1cc([C@H](C)N2CCc3c(cc(Cn4ccnc4C)cc3[C@@H]3CCCN3C)C2=O)ncc1C#N (single isomer, unassigned) [Example 266]",1000 to 25000,
< 10,10 to 1000,"CCOc1cc([C@H](C)N2CCc3c(cc(Cn4ccnc4C)cc3-c3c[nH]c(=O)cc3C(F)(F)F)C2=O)ncc1C#N [Example 269, (S)-4-Ethoxy-6-(1-(7-((2-methyl-1H-imidazol-1-yl)methyl)-1-oxo-5-(6-oxo-4-(trifluoromethyl)-1,6-dihydropyridin-3-yl)-3,4-dihydroisoquinolin-2(1H)-yl)ethyl)nicotinonitrile]",10 to 1000,
10 to 1000,10 to 1000,"CNc1nccn1Cc1cc2c(c(-c3ccn[nH]3)c1)CCN([C@@H](C)c1cc(OC)c(F)cn1)C2=O [Example 63, (S)-2-(1-(5-fluoro-4-methoxypyridin-2-yl)ethyl)-7-((2-(methylamino)-1H-imidazol-1-yl)methyl)-5-(1H-pyrazol-5-yl)-3,4-dihydroisoquinolin-1(2H)-one]",10 to 1000,
10 to 1000,10 to 1000,"CCOc1cc(C(C)N2CCc3c(cc(CCN(C)CC)cc3N3CCCC3)C2=O)ncc1C#N (stereo not drawn) [Example 207, 4-ethoxy-6-(1-(7-(2-(ethyl(methyl)amino)ethyl)-1-oxo-5-(pyrrolidin-1-yl)-3,4-dihydroisoquinolin-2(1H)-yl)ethyl)nicotinonitrile]",1000 to 25000,
< 10,10 to 1000,"CNc1nccn1Cc1cc(CN2CCOCC2)c2c(c1)C(=O)N([C@@H](C)c1cc(OC)c(F)cn1)CC2 (single isomer, unassigned) [Example 7]",10 to 1000,
< 10,10 to 1000,"CCOc1cc([C@H](C)N2CCc3c(cc(Cn4ccnc4NC)cc3N3CCCC3)C2=O)ncc1F (single isomer, unassigned) [Example 88]",10 to 1000,
10 to 1000,10 to 1000,"CCOc1cc(C(C)N2CCc3c(cc(CCN(C)CC)cc3-c3cc(Cl)nnc3C)C2=O)ncc1C#N (stereo not drawn) [Example 203, 6-(1-(5-(6-chloro-3-methylpyridazin-4-yI)-7-(2-(ethyl(methyl)amino)ethyl)-1-oxo-3,4-dihydroisoquinolin-2(1H)-yl)ethyl)-4-ethoxynicotinonitrile]",10 to 1000,
10 to 1000,10 to 1000,"CCOc1cc([C@H](C)N2CCc3c(cc(CCN(C)CC)cc3-c3cn(C)c(=O)cc3C(F)(F)F)C2=O)ncc1F [Example 204, (S)-2-(1-(4-ethoxy-5-fluompyridin-2-yl)ethyl)-7-(2-(ethyl(methyl)amino)ethyl)-5-(1-methyl-6-oxo-4-(trifluoromethyl)-1,6-dihydropyridin-3-yl)-3,4-dihydroisoquinolin-1(2H)-one]",,10 to 1000
10 to 1000,10 to 1000,CNc1nccn1Cc1cc(CN2CC(F)C2)c2c(c1)C(=O)N([C@@H](C)c1cc(OC)c(F)cn1)CC2 [Example 42],10 to 1000,
10 to 1000,10 to 1000,"CNc1nccn1Cc1cc2c(c(-c3cn(C)nc3C(F)F)c1)CCN(Cc1ccc(F)c(OC)c1)C2=O [Example 66, 5-(3-(difluoromethyl)-1-methyl-1H-pyrazol-4-yl)-2-(4-fluoro-3-methoxybenzyl)-7-((2-(methylamino)-1H-imidazol-1-yl)methyl)-3,4-dihydroisoquinolin-1(2H)-one]",10 to 1000,
10 to 1000,10 to 1000,"CCOc1cc(C(C)N2CCc3c(cc(CCN(C)CC)cc3-c3cc(Cl)cnc3C)C2=O)ncc1C#N (stereo not drawn) [Example 197, 6-(1-(5-(5-chloro-2-methylpyridin-3-yl)-7-(2-(ethyl(methyl)amino)ethyl)-1-oxo-3,4-dihydroisoquinolin-2(1H)-yl)ethyl)-4-ethoxynicotinonitrile]",10 to 1000,
10 to 1000,10 to 1000,"CNc1nccn1Cc1cc(Br)c2ccn(Cc3ccc(F)c(OC)c3)c(=O)c2c1 [Example 99, 5-bromo-2-(4-fluoro-3-methoxybenzyl)-7-((2-(methylamino)-1H-imidazol-1-yl)methyl)isoquinolin-1(2H)-one]",10 to 1000,
